Source: patent publication US20100267561A1, “HERBICIDAL PYRIDAZINONE DERIVATIVES” (priority 2007, published 2010)

Columns and labels:
Experiment in all cases: Test B pre-/postemergence plant response
Assay type in all cases: in vivo
[1] = test system: giant foxtail (Setaria faberii)
In short: (§1)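 Visual scoring from 0 (no effect) to 100 (complete control) against untreated controls was done 13 to 15 days after greenhouse treatment. Chemicals were formulated in a surfactant-containing non-phytotoxic solvent and applied to soil preemergence or to 1- to 4-leaf (2-18 cm) plants postemergence.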

[2] = test system: lambsquarters (Chenopodium album)
In short: as §1

[3] = test system: velvetleaf (Abutilon theophrasti)
In short: as §1

[4] = test system: yellow nutsedge (Cyperus esculentus)
In short: as §1

corn (Zea mays) = test system: corn (Zea mays)
In short: as §1

[5] = test system: cocklebur (Xanthium strumarium)
In short: as §1

soybean (Glycine max) = test system: soybean (Glycine max)
In short: as §1

kochia (Kochia scoparia) = conditions: for Kochia plant response rating: 8 g ai/ha
In short: as §1

[6] = test system: goosegrass (Eleusine indica)
In short: as §1

[7] = test system: woolly cupgrass (Eriochloa villosa)
In short: as §1

[8] = test system: wheat (Triticum aestivum)
In short: as §1

[9] = test system: Russian thistle (Salsola iberica); conditions: Preemergence
In short: as §1

[10] = test system: green foxtail (Setaria viridis)
In short: as §1

[11] = test system: bermudagrass (Cynodon dactylon)
In short: as §1

[12] = 8 g ai/ha, postemergence, 0-100 scale
[13] = Postemergence, 16 g ai/ha, scale 0 to 100
[14] = Postemergence, 31 g ai/ha, scale 0 to 100, 0 no effect, 100 complete control
[15] = Postemergence, 62 g ai/ha, scale 0 to 100
[16] = Preemergence, 16 g ai/ha, scale 0 to 100 (0 no effect, 100 complete control)
[17] = Preemergence, 31 g ai/ha, 0 to 100 scale, 0 no effect, 100 complete control
[18] = Preemergence, 62 g ai/ha, scale 0 to 100
[19] = Preemergence, 8 g ai/ha, scale 0 to 100
[20] = Preemergence, 8 g ai/ha, scale 0 to 100 (0 no effect, 100 complete control)
[21] = Postemergence, 31 g ai/ha, scale 0 to 100
[22] = Postemergence, 62 g ai/ha, scale 0 to 100, 0 no effect, 100 complete control
[23] = Preemergence, 31 g ai/ha, scale 0 to 100 (0 no effect, 100 complete control)
[24] = Preemergence, 62 g ai/ha, 0 to 100 scale, 0 no effect, 100 complete control
[25] = Preemergence, 16 g ai/ha, scale 0 to 100
[26] = 16 g ai/ha, postemergence, 0-100 scale

Q: Which results are given for `CCc1cc(-c2ccc(C(F)(F)F)cc2)nn1-c1c(OS(C)(=O)=O)cnn(C)c1=O` [Compound 19]?
A: Foxtail, Giant plant response rating [1, 12]: 95; Plant response rating, Foxtail, Giant [1, 13]: 100; Plant response rating, Foxtail, Giant [1, 14]: 100; Plant response rating, Foxtail, Giant [1, 15]: 100; Plant response rating, Foxtail, Giant [1, 16]: 100; Plant response rating, Foxtail, Giant [1, 17]: 100; Plant response rating, Foxtail, Giant [1, 18]: 100; Foxtail, Giant plant response rating [1, 19]: 70; Lambsquarters plant response rating [2, 12]: 0; Plant response rating, Lambsquarters [2, 13]: 0; Plant response rating, Lambsquarters [2, 14]: 0; Plant response rating, Lambsquarters [2, 15]: 0; Plant response rating, Lambsquarters [2, 16]: 0; Plant response rating, Lambsquarters [2, 17]: 0; Plant response rating, Lambsquarters [2, 18]: 40; Velvetleaf plant response rating [3, 12]: 0; Plant response rating, Velvetleaf [3, 13]: 0; Plant response rating, Velvetleaf [3, 14]: 0; Plant response rating, Velvetleaf [3, 15]: 0; Plant response rating, Velvetleaf [3, 16]: 0; Plant response rating, Velvetleaf [3, 17]: 0; Plant response rating, Velvetleaf [3, 18]: 0; Velvetleaf plant response rating [3, 19]: 0; Nutsedge, Yellow plant response rating [4, 12]: 0; Plant response rating, Nutsedge, Yellow [4, 13]: 0; Plant response rating, Nutsedge, Yellow [4, 14]: 0; Plant response rating, Nutsedge, Yellow [4, 15]: 30; Plant response rating, Nutsedge, Yellow [4, 16]: 0; Plant response rating, Nutsedge, Yellow [4, 17]: 0; Plant response rating, Nutsedge, Yellow [4, 18]: 0; Nutsedge, Yellow plant response rating [4, 19]: 0; Corn plant response rating (corn (Zea mays); [12]): 0; Plant response rating, Corn (corn (Zea mays); [13]): 0; Plant response rating, Corn (corn (Zea mays); [14]): 0; Plant response rating, Corn (corn (Zea mays); [15]): 95; Plant response rating, Corn (corn (Zea mays); [16]): 85; Plant response rating, Corn (corn (Zea mays); [17]): 95; Plant response rating, Corn (corn (Zea mays); [18]): 98; Corn plant response rating (corn (Zea mays); [19]): 70; Cocklebur plant response rating [5, 12]: 0; Plant response rating, Cocklebur [5, 13]: 0; Plant response rating, Cocklebur [5, 14]: 0; Plant response rating, Cocklebur [5, 15]: 0; Plant response rating, Cocklebur [5, 16]: 0; Plant response rating, Cocklebur [5, 17]: 0; Plant response rating, Cocklebur [5, 18]: 0; Cocklebur plant response rating [5, 19]: 0; Soybean plant response rating (soybean (Glycine max); [12]): 0; Plant response rating, Soybean (soybean (Glycine max); [13]): 0; Plant response rating, Soybean (soybean (Glycine max); [14]): 0; Plant response rating, Soybean (soybean (Glycine max); [15]): 0; Plant response rating, Soybean (soybean (Glycine max); [18]): 0; Soybean plant response rating (soybean (Glycine max); [19]): 0; Kochia plant response rating (kochia (Kochia scoparia); postemergence, 0-100 scale): 0; Plant response rating, Kochia (kochia (Kochia scoparia); [13]): 0; Plant response rating, Kochia (kochia (Kochia scoparia); [14]): 0; Plant response rating, Kochia (kochia (Kochia scoparia); [15]): 0; Plant response rating, Kochia (kochia (Kochia scoparia); [16]): 0; Plant response rating, Kochia (kochia (Kochia scoparia); [18]): 0; Kochia plant response rating (kochia (Kochia scoparia); Preemergence, scale 0 to 100): 0; Goosegrass plant response rating [6, 12]: 50; Plant response rating, Goosegrass [6, 13]: 80; Plant response rating, Goosegrass [6, 14]: 80; Plant response rating, Goosegrass [6, 15]: 90; Plant response rating, Goosegrass [6, 16]: 75; Plant response rating, Goosegrass [6, 17]: 100; Plant response rating, Goosegrass [6, 18]: 100; Goosegrass plant response rating [6, 19]: 0; Cupgrass, Woolly plant response rating [7, 12]: 90; Plant response rating, Cupgrass, Woolly [7, 13]: 90; Plant response rating, Cupgrass, Woolly [7, 14]: 100; Plant response rating, Cupgrass, Woolly [7, 15]: 100; Plant response rating, Cupgrass, Woolly [7, 16]: 85; Plant response rating, Cupgrass, Woolly [7, 17]: 98; Plant response rating, Cupgrass, Woolly [7, 18]: 100; Cupgrass, Woolly plant response rating [7, 19]: 50; Wheat plant response rating [8, 12]: 0; Plant response rating, Wheat [8, 13]: 60; Plant response rating, Wheat [8, 14]: 85; Plant response rating, Wheat [8, 15]: 98; Plant response rating, Wheat [8, 16]: 10; Plant response rating, Wheat [8, 17]: 90; Plant response rating, Wheat [8, 18]: 95; Wheat plant response rating [8, 19]: 0; Plant response rating, Russian Thistle ([9]; 16 g ai/ha, scale 0 to 100 (0 no effect, 100 complete control)): 0; Plant response rating, Russian Thistle ([9]; 31 g ai/ha, 0 to 100 scale, 0 no effect, 100 complete control): 0; Russian Thistle plant response rating ([9]; 8 g ai/ha, scale 0 to 100): 0; Foxtail, Green plant response rating [10, 12]: 60; Plant response rating, Foxtail, Green [10, 13]: 100; Plant response rating, Foxtail, Green [10, 14]: 100; Plant response rating, Foxtail, Green [10, 15]: 100; Plant response rating, Foxtail, Green [10, 16]: 100; Plant response rating, Foxtail, Green [10, 17]: 100; Plant response rating, Foxtail, Green [10, 18]: 100; Foxtail, Green plant response rating [10, 19]: 85; Bermudagrass plant response rating [11, 12]: 80; Plant response rating, Bermudagrass [11, 13]: 100; Plant response rating, Bermudagrass [11, 14]: 100; Plant response rating, Bermudagrass [11, 15]: 100; Bermudagrass plant response rating [11, 20]: 0; Plant response rating, Bermudagrass [11, 16]: 90; Plant response rating, Bermudagrass [11, 17]: 98; Plant response rating, Bermudagrass [11, 18]: 100

Q: What does the source list for `Cc1nn(C)c(=O)c(-n2nc(-c3ccc(Br)cc3)cc2C)c1O` [Compound 81]?
A: Foxtail, Giant plant response rating [1, 12]: 80; Plant response rating, Foxtail, Giant [1, 13]: 85; Plant response rating, Foxtail, Giant [1, 21]: 98; Plant response rating, Foxtail, Giant [1, 22]: 100; Foxtail, Giant plant response rating [1, 20]: 80; Plant response rating, Foxtail, Giant [1, 23]: 100; Plant response rating, Foxtail, Giant [1, 24]: 100; Foxtail, Giant plant response rating [1, 25]: 100; Lambsquarters plant response rating [2, 12]: 0; Lambsquarters plant response rating [2, 26]: 0; Plant response rating, Lambsquarters [2, 21]: 0; Plant response rating, Lambsquarters [2, 22]: 0; Lambsquarters plant response rating [2, 20]: 0; Plant response rating, Lambsquarters [2, 23]: 0; Plant response rating, Lambsquarters [2, 24]: 0; Lambsquarters plant response rating [2, 25]: 0; Velvetleaf plant response rating [3, 12]: 0; Velvetleaf plant response rating [3, 26]: 0; Plant response rating, Velvetleaf [3, 21]: 0; Plant response rating, Velvetleaf [3, 22]: 0; Velvetleaf plant response rating [3, 20]: 0; Plant response rating, Velvetleaf [3, 23]: 0; Plant response rating, Velvetleaf [3, 24]: 0; Velvetleaf plant response rating [3, 25]: 0; Nutsedge, Yellow plant response rating [4, 12]: 0; Nutsedge, Yellow plant response rating [4, 26]: 0; Plant response rating, Nutsedge, Yellow [4, 21]: 0; Plant response rating, Nutsedge, Yellow [4, 22]: 0; Nutsedge, Yellow plant response rating [4, 20]: 0; Plant response rating, Nutsedge, Yellow [4, 23]: 0; Plant response rating, Nutsedge, Yellow [4, 24]: 0; Nutsedge, Yellow plant response rating [4, 25]: 0; Corn plant response rating (corn (Zea mays); [12]): 45; Plant response rating, Corn (corn (Zea mays); [13]): 100; Plant response rating, Corn (corn (Zea mays); [21]): 100; Plant response rating, Corn (corn (Zea mays); [22]): 100; Corn plant response rating (corn (Zea mays); [20]): 65; Plant response rating, Corn (corn (Zea mays); [23]): 98; Plant response rating, Corn (corn (Zea mays); [24]): 100; Corn plant response rating (corn (Zea mays); [25]): 70; Cocklebur plant response rating [5, 12]: 0; Plant response rating, Cocklebur [5, 13]: 0; Plant response rating, Cocklebur [5, 21]: 0; Plant response rating, Cocklebur [5, 22]: 0; Cocklebur plant response rating [5, 20]: 0; Plant response rating, Cocklebur [5, 23]: 0; Plant response rating, Cocklebur [5, 24]: 0; Cocklebur plant response rating [5, 25]: 0; Soybean plant response rating (soybean (Glycine max); [12]): 0; Soybean plant response rating (soybean (Glycine max); [26]): 0; Plant response rating, Soybean (soybean (Glycine max); [21]): 15; Plant response rating, Soybean (soybean (Glycine max); [22]): 20; Soybean plant response rating (soybean (Glycine max); [20]): 0; Plant response rating, Soybean (soybean (Glycine max); [23]): 0; Plant response rating, Soybean (soybean (Glycine max); [24]): 0; Soybean plant response rating (soybean (Glycine max); [25]): 0; Goosegrass plant response rating [6, 12]: 65; Goosegrass plant response rating [6, 26]: 70; Plant response rating, Goosegrass [6, 21]: 80; Plant response rating, Goosegrass [6, 22]: 85; Goosegrass plant response rating [6, 20]: 80; Plant response rating, Goosegrass [6, 23]: 100; Plant response rating, Goosegrass [6, 24]: 100; Goosegrass plant response rating [6, 25]: 98; Cupgrass, Woolly plant response rating [7, 12]: 75; Plant response rating, Cupgrass, Woolly [7, 13]: 85; Plant response rating, Cupgrass, Woolly [7, 21]: 95; Plant response rating, Cupgrass, Woolly [7, 22]: 98; Cupgrass, Woolly plant response rating [7, 20]: 20; Plant response rating, Cupgrass, Woolly [7, 23]: 95; Plant response rating, Cupgrass, Woolly [7, 24]: 98; Cupgrass, Woolly plant response rating [7, 25]: 45; Wheat plant response rating [8, 12]: 30; Wheat plant response rating [8, 26]: 55; Plant response rating, Wheat [8, 21]: 95; Plant response rating, Wheat [8, 22]: 100; Wheat plant response rating [8, 20]: 0; Plant response rating, Wheat [8, 23]: 50; Plant response rating, Wheat [8, 24]: 85; Wheat plant response rating [8, 25]: 5; Russian Thistle plant response rating ([9]; 8 g ai/ha, scale 0 to 100 (0 no effect, 100 complete control)): 0; Plant response rating, Russian Thistle ([9]; 31 g ai/ha, scale 0 to 100 (0 no effect, 100 complete control)): 0; Plant response rating, Russian Thistle ([9]; 62 g ai/ha, 0 to 100 scale, 0 no effect, 100 complete control): 0; Russian Thistle plant response rating ([9]; 16 g ai/ha, scale 0 to 100): 0; Foxtail, Green plant response rating [10, 12]: 85; Plant response rating, Foxtail, Green [10, 13]: 90; Plant response rating, Foxtail, Green [10, 21]: 95; Plant response rating, Foxtail, Green [10, 22]: 98; Foxtail, Green plant response rating [10, 20]: 40; Plant response rating, Foxtail, Green [10, 23]: 100; Plant response rating, Foxtail, Green [10, 24]: 100; Foxtail, Green plant response rating [10, 25]: 80; Bermudagrass plant response rating [11, 12]: 40; Plant response rating, Bermudagrass [11, 13]: 95; Plant response rating, Bermudagrass [11, 21]: 100; Plant response rating, Bermudagrass [11, 22]: 100; Bermudagrass plant response rating [11, 20]: 0; Bermudagrass plant response rating [11, 16]: 50; Plant response rating, Bermudagrass [11, 23]: 100; Plant response rating, Bermudagrass [11, 24]: 100
